Laboratory results: PubChem BioAssay AID256 (DTP/NCI, 2004)
Several values for one entry are separate records, joined by “and”; a condition that tells them apart may be missing. Equal values may be shown once. Inconclusive results and toxic doses are left out.

Tested on: CD2F1 mice, L1210 leukemia ip, survival T/C
Assay: NCI In Vivo Anticancer Drug Screen. Data for tumor model L1210 Leukemia (intraperitoneal) in CD2F1 (CDF1) mice
Details: higher = longer survival
Procedure, shortened: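 Vehicle-treated tumor-bearing mice served as controls (C) for compound-treated mice (T). Reported figure is T divided by C.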

[1] = endpoint: mean survival time, dose: 100.0 mg/kg/injection, schedule: Q04DX003 (ip), vehicle: saline with Tween-80
[2] = endpoint: mean survival time, dose: 200.0 mg/kg/injection, schedule: Q04DX003 (ip), vehicle: saline with Tween-80
[3] = endpoint: mean survival time, dose: 400.0 mg/kg/injection, schedule: Q04DX003 (ip), vehicle: saline with Tween-80
[4] = endpoint: mean survival time, dose: 25.0 mg/kg/injection, schedule: Q01DX001 (ip), vehicle: saline with Tween-80
[5] = endpoint: mean survival time, dose: 50.0 mg/kg/injection, schedule: Q01DX001 (ip), vehicle: saline with Tween-80
[6] = endpoint: mean survival time, dose: 100.0 mg/kg/injection, schedule: Q01DX001 (ip), vehicle: saline with Tween-80
[7] = endpoint: mean survival time, dose: 100.0 mg/kg/injection, schedule: Q01DX009 (ip), vehicle: saline with Tween-80
[8] = endpoint: mean survival time, dose: 200.0 mg/kg/injection, schedule: Q01DX009 (ip), vehicle: saline with Tween-80
[9] = endpoint: mean survival time, dose: 400.0 mg/kg/injection, schedule: Q01DX009 (ip), vehicle: saline with Tween-80
[10] = endpoint: mean survival time, dose: 100.0 mg/kg/injection, schedule: Q04DX002 (ip), vehicle: saline
[11] = endpoint: mean survival time, dose: 50.0 mg/kg/injection, schedule: Q01DX009 (ip), vehicle: saline with Tween-80
[12] = endpoint: mean survival time, dose: 100.0 mg/kg/injection, schedule: Q04DX002 (ip), vehicle: saline with Tween-80

CC(C)/C(=N\[N+](C)(C)C)c1ccccc1
T/C (endpoint: mean survival time, dose: 18.8 mg/kg/injection, schedule: Q01DX009 (ip), vehicle: saline): 97 % of control | T/C (endpoint: mean survival time, dose: 37.5 mg/kg/injection, schedule: Q01DX009 (ip), vehicle: saline): 96 % of control | T/C (endpoint: mean survival time, dose: 75.0 mg/kg/injection, schedule: Q01DX009 (ip), vehicle: saline): 91 % of control

CCNC(=O)c1ccccc1N=NN(C)C
T/C (endpoint: mean survival time, dose: 18.7 mg/kg/injection, schedule: Q01DX009 (ip), vehicle: Klucel (hydroxypropylcellulose) (HPC)): 105 % of control | T/C (endpoint: mean survival time, dose: 18.75 mg/kg/injection, schedule: Q01DX009 (ip), vehicle: Klucel (hydroxypropylcellulose) (HPC)): 92 % of control and 97 % of control

O=C1C=C(c2ccc(O)cc2)CO1
T/C [1]: 97 % of control | T/C [2]: 94 % of control | T/C [3]: 97 % of control

CC(=O)Nc1ncnc2c1ncn2C1OC(COC(C)=O)C(NC(=O)C(F)(F)F)C1OC(C)=O (stereo unspecified)
T/C (endpoint: median survival time, dose: 12.5 mg/kg/injection, schedule: Q01DX005 (ip), vehicle: alkali diluted with saline): 109 % of control | T/C (endpoint: median survival time, dose: 25.0 mg/kg/injection, schedule: Q01DX005 (ip), vehicle: alkali diluted with saline): 102 % of control | T/C (endpoint: median survival time, dose: 50.0 mg/kg/injection, schedule: Q01DX005 (ip), vehicle: alkali diluted with saline): 109 % of control | T/C (endpoint: median survival time, dose: 100.0 mg/kg/injection, schedule: Q01DX005 (ip), vehicle: alkali diluted with saline): 107 % of control | T/C (endpoint: median survival time, dose: 200.0 mg/kg/injection, schedule: Q01DX005 (ip), vehicle: alkali diluted with saline): 106 % of control

CCOC(=O)C1(C(=O)OCC)CC2(COC(c3ccccc3)OC2)C1
T/C (endpoint: mean survival time, dose: 100.0 mg/kg/injection, schedule: Q04DX003 (ip), vehicle: saline): 97 % of control | T/C (endpoint: mean survival time, dose: 200.0 mg/kg/injection, schedule: Q04DX003 (ip), vehicle: saline): 97 % of control | T/C (endpoint: mean survival time, dose: 400.0 mg/kg/injection, schedule: Q04DX003 (ip), vehicle: saline): 95 % of control

CN(C)c1nc(F)nc2c1ncn2C1OC(CO)C(O)C1O (stereo unspecified)
T/C (endpoint: mean survival time, dose: 75.0 mg/kg/injection, schedule: Q01DX001 (ip), vehicle: other): 100 % of control | T/C (endpoint: mean survival time, dose: 150.0 mg/kg/injection, schedule: Q01DX001 (ip), vehicle: other): 109 % of control | T/C (endpoint: mean survival time, dose: 300.0 mg/kg/injection, schedule: Q01DX001 (ip), vehicle: other): 109 % of control

O=c1[nH]c(=O)n(C2CC(O)C(CO)O2)cc1/C=N/O (stereo unspecified)
T/C (endpoint: mean survival time, dose: 12.5 mg/kg/injection, schedule: Q01DX005 (ip), vehicle: distilled water + Tween-80): 101 % of control | T/C (endpoint: mean survival time, dose: 25.0 mg/kg/injection, schedule: Q01DX005 (ip), vehicle: distilled water + Tween-80): 103 % of control | T/C (endpoint: mean survival time, dose: 50.0 mg/kg/injection, schedule: Q01DX005 (ip), vehicle: distilled water + Tween-80): 101 % of control | T/C (endpoint: mean survival time, dose: 100.0 mg/kg/injection, schedule: Q01DX005 (ip), vehicle: distilled water + Tween-80): 98 % of control | T/C (endpoint: mean survival time, dose: 200.0 mg/kg/injection, schedule: Q01DX005 (ip), vehicle: distilled water + Tween-80): 101 % of control

O=C(O)CS(=O)(=O)CC(=O)O
T/C [4]: 93 % of control | T/C [5]: 104 % of control | T/C (endpoint: mean survival time, dose: 50.0 mg/kg/injection, schedule: Q01DX009 (ip), vehicle: saline): 90 % of control | T/C [6]: 102 % of control | T/C (endpoint: mean survival time, dose: 100.0 mg/kg/injection, schedule: Q01DX009 (ip), vehicle: saline): 89 % of control | T/C (endpoint: mean survival time, dose: 200.0 mg/kg/injection, schedule: Q01DX009 (ip), vehicle: saline): 93 % of control

C(=C(c1ccccc1)c1ccccc1)=C(c1ccccc1)c1ccccc1
T/C [7]: 93 % of control | T/C [1]: 100 % of control | T/C [8]: 90 % of control | T/C [2]: 97 % of control | T/C [9]: 90 % of control | T/C [3]: 95 % of control

S=C(NCCSSCCNC(=S)Nc1ccccc1)Nc1ccccc1
T/C [1]: 98 % of control | T/C [2]: 94 % of control | T/C [3]: 86 % of control

COC(=O)C1CCOC1=O (stereo unspecified)
T/C [10]: 98 % of control | T/C (endpoint: mean survival time, dose: 200.0 mg/kg/injection, schedule: Q04DX002 (ip), vehicle: saline): 98 % of control | T/C (endpoint: mean survival time, dose: 400.0 mg/kg/injection, schedule: Q04DX002 (ip), vehicle: saline): 102 % of control

CN(C)CC(N)C(=O)O (stereo unspecified)
T/C (endpoint: mean survival time, dose: 50.0 mg/kg/injection, schedule: Q04DX002 (ip), vehicle: saline): 89 % of control | T/C [10]: 92 % of control

CC(=O)OCC1OC(OC(C)=O)C(NC(=O)Nc2cccc([N+](=O)[O-])c2)C(OC(C)=O)C1OC(C)=O (stereo unspecified)
T/C (endpoint: mean survival time, dose: 12.5 mg/kg/injection, schedule: Q01DX009 (ip), vehicle: other): 96 % of control | T/C (endpoint: mean survival time, dose: 25.0 mg/kg/injection, schedule: Q01DX009 (ip), vehicle: other): 96 % of control | T/C (endpoint: mean survival time, dose: 50.0 mg/kg/injection, schedule: Q01DX009 (ip), vehicle: other): 98 % of control | T/C (endpoint: mean survival time, dose: 100.0 mg/kg/injection, schedule: Q01DX009 (ip), vehicle: other): 100 % of control | T/C (endpoint: mean survival time, dose: 200.0 mg/kg/injection, schedule: Q01DX009 (ip), vehicle: other): 93 % of control

CC12c3ccccc3C(c3ccccc31)C1C(=O)OC(=O)C12 (stereo unspecified)
T/C [11]: 95 % of control | T/C [7]: 103 % of control

CC(=O)c1ccc2c3c(ccc([N+](=O)[O-])c13)C(=O)OC2=O
T/C [1]: 91 % of control | T/C [2]: 95 % of control

C=CC1CC2CC(C1C)C2(C)C (stereo unspecified)
T/C [11]: 96 % of control | T/C [7]: 100 % of control | T/C [8]: 104 % of control

CCOC(=O)c1ccc(NNS(=O)(=O)c2cccc(N)c2)cc1
T/C (endpoint: mean survival time, dose: 100.0 mg/kg/injection, schedule: Q01DX009 (ip), vehicle: Klucel (hydroxypropylcellulose) (HPC)): 97 % of control | T/C [1]: 96 % of control | T/C (endpoint: mean survival time, dose: 200.0 mg/kg/injection, schedule: Q01DX009 (ip), vehicle: Klucel (hydroxypropylcellulose) (HPC)): 93 % of control | T/C [2]: 101 % of control | T/C (endpoint: mean survival time, dose: 400.0 mg/kg/injection, schedule: Q01DX009 (ip), vehicle: Klucel (hydroxypropylcellulose) (HPC)): 101 % of control | T/C [3]: 95 % of control

CCCCCCCCCC(=O)NC(=S)Nc1c(C)cccc1C
T/C [4]: 95 % of control | T/C [5]: 95 % of control | T/C [6]: 92 % of control | T/C [7]: 92 % of control and 109 % of control | T/C [12]: 92 % of control and 96 % of control | T/C [1]: 98 % of control | T/C (endpoint: mean survival time, dose: 200.0 mg/kg/injection, schedule: Q01DX001 (ip), vehicle: saline with Tween-80): 91 % of control and 92 % of control | T/C [8]: 89 % of control and 98 % of control | T/C (endpoint: mean survival time, dose: 200.0 mg/kg/injection, schedule: Q04DX002 (ip), vehicle: saline with Tween-80): 98 % of control and 100 % of control | T/C [2]: 95 % of control | T/C (endpoint: mean survival time, dose: 400.0 mg/kg/injection, schedule: Q01DX001 (ip), vehicle: saline with Tween-80): 88 % of control | T/C [9]: 106 % of control | T/C (endpoint: mean survival time, dose: 400.0 mg/kg/injection, schedule: Q04DX002 (ip), vehicle: saline with Tween-80): 91 % of control and 96 % of control | T/C [3]: 90 % of control

CC1=CC(C(=O)O)P(C)(=O)C1 (stereo unspecified)
T/C (endpoint: mean survival time, dose: 25.0 mg/kg/injection, schedule: Q01DX009 (ip), vehicle: saline with Tween-80): 101 % of control | T/C (endpoint: mean survival time, dose: 25.0 mg/kg/injection, schedule: Q04DX002 (ip), vehicle: saline with Tween-80): 100 % of control | T/C [11]: 101 % of control | T/C (endpoint: mean survival time, dose: 50.0 mg/kg/injection, schedule: Q04DX002 (ip), vehicle: saline with Tween-80): 91 % of control | T/C [7]: 104 % of control | T/C [12]: 95 % of control

CCOC(=O)CC(=O)c1c(C)cc(C)c(Br)c1C
T/C [2]: 97 % of control | T/C [3]: 92 % of control

O=NN(CCCl)C(=O)NC1C(O)C(O)C(O)C(O)C1O (stereo unspecified)
T/C (endpoint: mean survival time, dose: 13.0 mg/kg/injection, schedule: Q01DX001 (ip), vehicle: saline): 167 % of control and 220 % of control | T/C (endpoint: mean survival time, dose: 20.0 mg/kg/injection, schedule: Q01DX001 (ip), vehicle: saline): 173 % of control and 227 % of control | T/C (endpoint: mean survival time, dose: 25.0 mg/kg/injection, schedule: Q01DX001 (ip), vehicle: saline): 255 % of control | T/C (endpoint: mean survival time, dose: 30.0 mg/kg/injection, schedule: Q01DX001 (ip), vehicle: saline): 271 % of control and 282 % of control | T/C (endpoint: mean survival time, dose: 44.0 mg/kg/injection, schedule: Q01DX001 (ip), vehicle: saline): 197 % of control

COc1ccc2c(c1)N(CC(C)C[N+](C)(C)CCCCCCCCCC[N+](C)(C)CC(C)CN1c3ccccc3Sc3ccc(OC)cc31)c1ccccc1S2 (stereo unspecified)
T/C (endpoint: mean survival time, dose: 6.25 mg/kg/injection, schedule: Q01DX009 (ip), vehicle: saline): 100 % of control | T/C (endpoint: mean survival time, dose: 12.5 mg/kg/injection, schedule: Q01DX009 (ip), vehicle: saline): 92 % of control | T/C (endpoint: mean survival time, dose: 25.0 mg/kg/injection, schedule: Q01DX009 (ip), vehicle: saline): 106 % of control

CN1C(=O)C=CC1=O
T/C (endpoint: mean survival time, dose: 0.5 mg/kg/injection, schedule: Q01DX009 (ip), vehicle: saline): 101 % of control | T/C (endpoint: mean survival time, dose: 1.0 mg/kg/injection, schedule: Q01DX009 (ip), vehicle: saline): 95 % of control | T/C (endpoint: mean survival time, dose: 2.0 mg/kg/injection, schedule: Q01DX009 (ip), vehicle: saline): 93 % of control | T/C (endpoint: mean survival time, dose: 4.0 mg/kg/injection, schedule: Q01DX009 (ip), vehicle: saline): 95 % of control
